Here are results for 61 compounds from patent US20070197532A1, “GLUCOKINASE ACTIVATORS” (priority 2005, published 2007).

pEC50: −log10 of the molar value. Bounds are passed on as bounds.

This assay has as its target T1, glucokinase (GK) (Homo sapiens, UniProt P35557).
T1 construct: I.D. No. 1 corresponds to residues 13-466 of glucokinase; made in house; host or cells: E. coli DH10b-T1r
T1 sequence (P35557 with tags, fused parts or gaps isoform P35557-2): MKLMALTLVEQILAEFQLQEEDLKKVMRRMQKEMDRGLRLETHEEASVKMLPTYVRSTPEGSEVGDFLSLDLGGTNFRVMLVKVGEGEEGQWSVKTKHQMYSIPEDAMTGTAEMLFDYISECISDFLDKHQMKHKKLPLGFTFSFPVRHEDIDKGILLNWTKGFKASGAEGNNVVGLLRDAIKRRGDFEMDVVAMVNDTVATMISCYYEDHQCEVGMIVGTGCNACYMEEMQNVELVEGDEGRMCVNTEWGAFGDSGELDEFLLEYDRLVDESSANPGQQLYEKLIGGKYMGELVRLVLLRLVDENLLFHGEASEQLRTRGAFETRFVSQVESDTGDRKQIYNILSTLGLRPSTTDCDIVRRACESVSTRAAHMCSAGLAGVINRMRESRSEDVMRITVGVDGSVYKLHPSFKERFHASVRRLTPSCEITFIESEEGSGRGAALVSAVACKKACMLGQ
Description: enzymatic glucokinase activity assay (ATP consumption, KinaseGlo luminescence). The note with it: recombinant GK; 5 μM ATP, 5 mM Glucose, 2% DMSO, 60 min at room temperature; Kact = concentration giving 50% of the maximal increase in GK activity; read-out: pKact. Type of assay: biochemical. The source says: The activity of compounds as glucokinase activators may be assayed in vitro, in vivo or in a cell line. Provided below is an enzymatic glucokinase activity assay.
Purified glucokinase may be obtained as follows. DNA encoding residues 12-465 of the full-length sequence of the human enzyme may be amplified by PCR and cloned into the HindIII and EcoRI sites of pFLAG-CTC (Sigma). SEQ. I.D. No. 1 corresponds to residues 13-466 of glucokinase.
The expression of recombinant glucokinase protein may be carried out by transformation and growth of DH10b-T1r E. coli cells incorporating the (pFLAG-CTC) plasmid in LB media. Protein expression can be induced in this system by the addition of IPTG to the culture medium.
Recombinant protein may be isolated from cellular extracts by passage over Sepharose Q Fast Flow resin (Pharmacia). This partially purified GK extract may then be further purified by a second passage over Poros HQ10 (Applied Biosystems). The purity of GK may be determined on denaturing SDS-PAGE gel. Purified GK may then be concentrated to a final concentration of 20.0 mg/ml. After flash freezing in liquid nitrogen, the proteins can be stored at −78° C. in a buffer containing 25 mM TRIS-HCl pH 7.6, 50 mM NaCl, and 0.5 mM TCEP.
The activation properties of compounds for GK may be determined using a black 384-well-plate format under the following reaction conditions: 25 mM Hepes pH 7.2, 25 mM NaCl, 10 mM MgCl2, 0.01% Brij35, 1 mM DTT, 5 μM ATP, 5 mM Glucose 2% DMSO. The amount of ATP consumed may be determined quantitatively by addition of equal volume of luciferase reagent (luciferase+beetle luciferin—KinaseGlo Luminescent Kinase Assay kit from Promega). The luminescence intensity may be measured by using the Analyst HT from LJL Biosystems.
The assay reaction may be initiated as follows: 4 μl of substrate mixture (12.5 μM ATP and 12.5 mM Glucose) was added to each well of the plate, followed by the addition of 2 μl of activator (2 fold serial dilutions for 11 data points for each activator) containing 10% DMSO. 4 μL of 1.25 nM GK solution may be added to initiate the reaction. The reaction mixture may then be incubated at room temperature for 60 min, and quenched and developed by addition of 10 μL of luciferase reagent. Luminescence intensities of the resulting reaction mixtures may be measured after a 10 min incubation at room temperature. The luminescence intensity may be measured by using the Analyst HT from LJL Biosystems.
pKact and % ACTmax values may be calculated by non-linear curve fitting of the compound concentrations and luminescence intensities to a standard inhibition/activation equation.
For orientation: In Kinase-Glo more light means more ATP remaining.
With `COc1ccccc1-c1nnc(SCC(=O)Nc2ccc(C)c(C)c2)[nH]1`, the pEC50 was no less than 5.70.

With `Fc1ccccc1CSc1n[nH]c(-c2ccccc2OCc2ccccc2)n1`, the pEC50 is no less than 5.70.

In the case of `COc1ccccc1-c1cc(-c2cccc(C#N)c2)n[nH]1`, the pEC50 was 5.40 to 5.60.

As for `COc1cc(OCc2ccccc2)ccc1-c1cc(-c2ccc(F)cc2)n[nH]1`, the pEC50 was no less than 5.70.

Take `Cn1ccnc1COc1ccccc1-c1cc(-c2ccc(F)cc2)n[nH]1`: the pEC50 was no less than 5.70.

With `c1ccc(-c2cc(-c3cccc4c3OCC4)[nH]n2)cc1`, the pEC50 was 5.40 to 5.60.

With `COc1ccccc1-c1cc(-c2cccc(NC(C)=O)c2)n[nH]1`, the pEC50 is no more than 5.30.

Take `COc1ccccc1-c1nc(SCC(=O)c2ccc(O)c(O)c2)n[nH]1`: the pEC50 is 5.40 to 5.60.

Consider `COc1ccccc1-c1nc(SCc2ccccc2F)n[nH]1`, for which the pEC50 is 5.40 to 5.60.

For `FC(F)(F)COc1ccc(OCC(F)(F)F)c(-c2ccn[nH]2)c1`, the pEC50 is no less than 5.70.

As for `COc1ccccc1-c1nc(SCC(=O)N2CCOCC2)n[nH]1`, the pEC50 was no less than 5.70.

Regarding `COc1ccccc1-c1nnc(SCC(=O)Nc2ccccc2[N+](=O)[O-])[nH]1`, the pEC50 is no less than 5.70.

With `COc1ccccc1-c1cc(OCc2ccccc2F)n[nH]1`, the pEC50 was no more than 5.30.

On to `COc1ccccc1-c1cc(-c2ccccc2)n[nH]1`, for which the pEC50 was 5.40 to 5.60.

As to `Fc1ccccc1COc1cc(-c2cccc3c2OCC3)[nH]n1`, the pEC50 is no more than 5.30.

On to `COc1ccccc1-c1cc(-c2ccc(C#N)cc2)n[nH]1`, for which the pEC50 was 5.40 to 5.60.

With `c1ccc(-c2cc(-c3ccccc3OCc3ccccn3)[nH]n2)cc1`, the pEC50 was 5.40 to 5.60.

For `COc1ccc(F)cc1-c1cc(OCc2ccccc2F)n[nH]1`, the pEC50 was no more than 5.30.

Regarding `COc1ccccc1-c1cc(-c2cccc(F)c2)[nH]n1`, the pEC50 was no more than 5.30.

For `COc1ccc(F)cc1-c1cc(-c2cccc(F)c2)[nH]n1`, the pEC50 was 5.40 to 5.60.

Take `Fc1ccc(-c2cc(-c3ccccc3Oc3ccccc3)[nH]n2)cc1`: the pEC50 is 5.40 to 5.60.

Take `COc1ccccc1-c1cc(-c2ccc(F)cc2)n[nH]1`: the pEC50 is 5.40 to 5.60.

Turning to `Fc1ccc(-c2cc(-c3cccc(Oc4ncccn4)c3)[nH]n2)cc1`, the pEC50 was no more than 5.30.

Consider `Fc1ccc(-c2cc(-c3cccc(Oc4ccccc4)c3)[nH]n2)cc1`, for which the pEC50 was no less than 5.70.

Consider `CC1(C)Cc2cccc(-c3cc(-c4ccccc4)n[nH]3)c2O1`, for which the pEC50 is no less than 5.70.

As for `Brc1cc2c(c(-c3cc(-c4ccccc4)n[nH]3)c1)OCC2`, the pEC50 is no more than 5.30.

Turning to `COc1ccccc1-c1cc(-c2cccc(N)c2)n[nH]1`, the pEC50 was 5.40 to 5.60.

Regarding `COCCOc1cc(OCc2ccccc2)ccc1-c1cc(-c2ccccc2)n[nH]1`, the pEC50 is no less than 5.70.

As to `COc1ccccc1-c1cc(-c2ccc(N3CCOCC3)nc2)n[nH]1`, the pEC50 was no more than 5.30.

With `c1ccc(COc2ccc(-c3cc(-c4ccccc4)n[nH]3)c(OCc3ccccn3)c2)cc1`, the pEC50 is no less than 5.70.

As for `COc1ccccc1-c1cc(-c2cccc(NC(=O)c3ccccc3)c2)n[nH]1`, the pEC50 was 5.40 to 5.60.

`COc1ccccc1-c1cc(-c2ccc(N(C)C)nc2)n[nH]1`: the pEC50 is 5.40 to 5.60.

Regarding `c1ccc(-c2cc(-c3ccccc3Oc3cccnc3)[nH]n2)cc1`, the pEC50 is 5.40 to 5.60.

As for `COc1cc([N+](=O)[O-])ccc1-c1cc(-c2ccccc2)n[nH]1`, the pEC50 is no less than 5.70.

For `COc1ccccc1-c1cc(-c2ccc(N)cc2)n[nH]1`, the pEC50 was no more than 5.30.

As to `COc1ccc(COc2ccc(-c3cc(-c4ccccc4)n[nH]3)c(OC)c2)cc1`, the pEC50 is 5.40 to 5.60.

With `COc1cc(NC(=O)c2ccccc2)ccc1-c1cc(-c2ccccc2)n[nH]1`, the pEC50 was no less than 5.70.

`COc1ccc(CNc2ccc(-c3cc(-c4ccccc4OC)[nH]n3)cn2)c(OC)c1`: the pEC50 is no less than 5.70.

In the case of `COc1ccccc1-c1cc(-c2ccccc2Cl)n[nH]1`, the pEC50 is 5.40 to 5.60.

For `COCCNc1ccc(-c2cc(-c3ccccc3OC)[nH]n2)cn1`, the pEC50 was 5.40 to 5.60.

`Clc1cccc(Oc2ccccc2-c2cc(-c3cccnc3)n[nH]2)c1`: the pEC50 was 5.40 to 5.60.

Turning to `COc1ccc(NCc2ccccc2)cc1-c1cc(-c2ccccc2)n[nH]1`, the pEC50 was no more than 5.30.

Turning to `COc1cc(NCc2ccccc2)ccc1-c1cc(-c2ccccc2)n[nH]1`, the pEC50 is 5.40 to 5.60.

As to `COc1ccc(NC(=O)c2ccccc2)cc1-c1cc(-c2ccccc2)n[nH]1`, the pEC50 was 5.40 to 5.60.

For `COc1ccc(NS(=O)(=O)c2ccccc2)cc1-c1cc(-c2ccccc2)n[nH]1`, the pEC50 is 5.40 to 5.60.

For `COc1ccc(NC(=O)Cc2ccccc2)cc1-c1cc(-c2ccccc2)n[nH]1`, the pEC50 was no less than 5.70.

In the case of `COc1ccc(NC(=O)c2cncs2)cc1-c1cc(-c2ccccc2)n[nH]1`, the pEC50 was no more than 5.30.

Consider `COc1ccc(NC(=O)c2ccoc2)cc1-c1cc(-c2ccccc2)n[nH]1`, for which the pEC50 is 5.40 to 5.60.

Regarding `COC[C@H](C)Oc1cc(OCc2ccccc2F)cc(-c2cc(OC)n[nH]2)c1`, the pEC50 was no more than 5.30.

Turning to `COC[C@H](C)Oc1cc(OCc2ccc(S(C)(=O)=O)cc2)cc(-c2cc(OC)n[nH]2)c1`, the pEC50 was 5.40 to 5.60.

As to `COC[C@H](C)Oc1cc(OCCc2ccsc2)cc(-c2cc(OC)n[nH]2)c1`, the pEC50 was no less than 5.70.

Take `COc1cc(-c2ccc3ncn(CC4CCCCC4)c3c2)[nH]n1`: the pEC50 was no more than 5.30.

For the compound `CS(=O)(=O)c1ccc(Oc2cc(OCc3ccccc3F)cc(-c3cc(O)n[nH]3)c2)cc1`, the pEC50 was no more than 5.30.

Consider `COc1cc(-c2cc(OCc3ccccc3F)cc(Oc3ccc(S(C)(=O)=O)cc3)c2)[nH]n1`, for which the pEC50 is no less than 5.70.

With `COC[C@H](C)Oc1cc(Oc2ccc(S(C)(=O)=O)cc2)cc(-c2cc(OC)n[nH]2)c1`, the pEC50 is no less than 5.70.

Take `COC[C@H](C)Oc1cc(Oc2ccc(S(C)(=O)=O)cc2)cc(-c2cc(OCC(=O)OC)n[nH]2)c1`: the pEC50 was 5.40 to 5.60.

For `Cc1cccnc1COc1cc(Oc2ccc(S(C)(=O)=O)cc2)cc(-c2cc(O)n[nH]2)c1`, the pEC50 was no more than 5.30.

For `COc1cc(-c2cc(OCc3ncccc3C)cc(Oc3ccc(S(C)(=O)=O)cc3)c2)[nH]n1`, the pEC50 was no less than 5.70.

For `COc1cc(-c2cc(Oc3ccc(S(C)(=O)=O)cc3)cc(OC3CCCC3)c2)[nH]n1`, the pEC50 was no less than 5.70.

As to `Cc1ccccc1COc1cc(Oc2ccc(S(C)(=O)=O)cc2)cc(-c2cc(O)n[nH]2)c1`, the pEC50 was no more than 5.30.

Consider `COc1cc(-c2cc(OCc3ccccc3C)cc(Oc3ccc(S(C)(=O)=O)cc3)c2)[nH]n1`, for which the pEC50 is no less than 5.70.
